{"source": "paper PMC4174574", "about": "(Molecular cancer therapeutics, 2013)", "key": {"Mcl-1 [1]": {"molecular_target": "T1, Mcl-1 (Homo sapiens, UniProt Q07820)", "T1 sequence (Q07820 whole entry)": "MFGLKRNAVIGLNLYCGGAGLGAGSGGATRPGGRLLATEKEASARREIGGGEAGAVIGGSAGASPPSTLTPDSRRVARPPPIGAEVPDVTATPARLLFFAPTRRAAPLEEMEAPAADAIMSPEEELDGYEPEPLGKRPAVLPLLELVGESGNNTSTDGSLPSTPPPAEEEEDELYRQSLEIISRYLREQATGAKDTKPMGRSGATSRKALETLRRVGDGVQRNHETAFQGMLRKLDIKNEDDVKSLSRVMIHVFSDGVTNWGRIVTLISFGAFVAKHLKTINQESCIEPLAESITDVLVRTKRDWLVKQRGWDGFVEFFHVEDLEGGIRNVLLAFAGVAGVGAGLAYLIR", "details": "cited from earlier work"}, "cellular Mcl-1": {"molecular_target": "cellular Mcl-1 (Homo sapiens, UniProt Q07820)", "sequence (Q07820 whole entry)": "as above", "assay": "Biotin-labeled Noxa BH3 peptide streptavidin pull-down from 2LMP cell lysate", "format": "binding"}, "AsPC-1": {"test_system": "AsPC-1", "details": "read-out: IC50 cell growth inhibition, AsPC-1; 4 days treatment"}, "BxPC-3": {"test_system": "BxPC-3", "details": "read-out: IC50 cell growth inhibition, BxPC-3; 4 days treatment"}, "Panc-1": {"test_system": "Panc-1", "details": "read-out: IC50 cell growth inhibition, Panc-1; 4 days treatment"}, "BxPC-3 cells [2]": {"test_system": "BxPC-3 cells", "assay": "Induction of apoptosis", "details": "BxPC-3 transfected with control siRNA, 3.5 μM, 72 h"}, "MiaPaCa-2": {"test_system": "MiaPaCa-2", "details": "read-out: IC50 cell growth inhibition, MiaPaCa-2; 4 days treatment"}, "A1/Bfl-1": {"molecular_target": "T2, A1/Bfl-1 (Homo sapiens, UniProt Q16548)", "T2 sequence (Q16548 1-175)": "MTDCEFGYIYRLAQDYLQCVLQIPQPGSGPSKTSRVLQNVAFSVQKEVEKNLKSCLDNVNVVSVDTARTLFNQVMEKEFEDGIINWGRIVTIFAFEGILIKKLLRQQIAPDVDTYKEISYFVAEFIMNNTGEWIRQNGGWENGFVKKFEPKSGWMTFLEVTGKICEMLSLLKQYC", "assay": "FP-based competitive binding assay using fluorescent labeled Bid BH3 peptide", "details": "for Ki: read-out: Ki ± SD, A1/Bfl-1, competitive FP assay, Bid BH3 peptide"}, "Bcl-xL [3]": {"molecular_target": "T3, Bcl-xL (Homo sapiens, UniProt Q07817)", "T3 sequence (Q07817 whole entry)": "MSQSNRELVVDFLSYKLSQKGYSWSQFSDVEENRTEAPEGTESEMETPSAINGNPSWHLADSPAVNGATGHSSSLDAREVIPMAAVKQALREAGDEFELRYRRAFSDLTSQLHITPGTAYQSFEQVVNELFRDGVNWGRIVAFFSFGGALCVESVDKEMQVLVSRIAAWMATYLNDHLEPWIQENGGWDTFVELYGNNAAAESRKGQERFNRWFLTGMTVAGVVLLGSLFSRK", "details": "solution competitive SPR, immobilized Bid peptide"}, "Panc-1 cells [4]": {"test_system": "Panc-1 cells", "details": "Panc-1, 24 h treatment"}, "Bcl-w": {"molecular_target": "T4, Bcl-w (Homo sapiens, UniProt Q92843)", "T4 sequence (Q92843 1-193)": "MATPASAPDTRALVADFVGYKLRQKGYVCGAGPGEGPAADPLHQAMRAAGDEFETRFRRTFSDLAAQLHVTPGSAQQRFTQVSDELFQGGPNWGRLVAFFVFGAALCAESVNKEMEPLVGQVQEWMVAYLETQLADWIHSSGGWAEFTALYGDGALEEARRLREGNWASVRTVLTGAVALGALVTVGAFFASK", "assay": "FP-based competitive binding assay using fluorescent labeled Bid BH3 peptide", "details": "for Ki: read-out: Ki ± SD, Bcl-w, competitive FP assay, Bid BH3 peptide"}, "[5]": {"test_system": "wild type (WT) murine embryonic fibroblasts (MEF)", "details": "10 μM, 24 h"}, "Bcl-2 [6]": {"molecular_target": "T5, Bcl-2 (Homo sapiens, UniProt P10415)", "T5 sequence (P10415 whole entry)": "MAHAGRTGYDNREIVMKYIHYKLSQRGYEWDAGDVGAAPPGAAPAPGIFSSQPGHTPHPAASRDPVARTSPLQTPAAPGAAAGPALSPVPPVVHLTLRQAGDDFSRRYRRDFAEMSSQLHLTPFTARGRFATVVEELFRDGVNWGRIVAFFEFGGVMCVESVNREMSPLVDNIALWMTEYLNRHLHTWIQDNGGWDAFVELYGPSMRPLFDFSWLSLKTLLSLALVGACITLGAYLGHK", "details": "solution competitive SPR, immobilized Bid peptide"}, "[7]": {"molecular_target": "Mcl-1/Bax and Mcl-1/Bak in BxPC-3 cells (Homo sapiens, UniProt Q07820)", "sequence (Q07820 whole entry)": "as the sequence (Q07820 whole entry) above", "details": "BxPC-3, 4 μM, 24 h"}, "Bcl-xL [8]": {"molecular_target": "T3, Bcl-xL", "assay": "FP-based competitive binding assay using fluorescent labeled Bid BH3 peptide"}, "[9]": {"assay": "Metabolic stability in pooled mice liver microsomes", "format": "in vitro ADME"}, "BxPC-3 cells [10]": {"test_system": "BxPC-3 cells", "assay": "Cell growth inhibition", "details": "BxPC-3 transfected with control siRNA, 3.5 μM, 72 h"}, "BxPC-3 xenograft": {"test_system": "BxPC-3 xenograft", "assay": "BxPC-3 xenograft efficacy in SCID mice", "format": "in vivo", "details": "60 mg/kg i.v.; for Tumor growth inhibition in comparison with controls: 5 days a week for two weeks"}, "SCID mice": {"test_system": "SCID mice", "details": "mouse, in vivo"}, "BxPC-3 cells [11]": {"test_system": "BxPC-3 cells", "details": "BxPC-3, 24 h, 3 and 10 μM, densitometry"}, "Mcl-1 [12]": {"molecular_target": "T1, Mcl-1", "format": "binding"}, "BxPC-3 cells [13]": {"test_system": "BxPC-3 cells", "details": "BxPC-3, 24 h, anti-Bax 6A7"}, "AsPC-1 cells": {"test_system": "AsPC-1 cells", "details": "AsPC-1, highest tested concentration 20 μM"}, "Mcl-1 [14]": {"molecular_target": "T1, Mcl-1", "assay": "FP-based competitive binding assay using fluorescent labeled Bid BH3 peptide"}, "Bcl-2 [15]": {"molecular_target": "T5, Bcl-2", "assay": "FP-based competitive binding assay using fluorescent labeled Bid BH3 peptide"}, "Panc-1 cells [16]": {"test_system": "Panc-1 cells", "details": "Panc-1, 24 h, anti-Bax 6A7"}, "[17]": {"test_system": "Bax/Bak-deficient (DKO) MEFs", "details": "10 μM, 24 h"}, "Capan-2": {"test_system": "Capan-2", "details": "read-out: IC50 cell growth inhibition, Capan-2; 4 days treatment"}, "Panc-1 cells [18]": {"test_system": "Panc-1 cells", "assay": "Induction of apoptosis, Annexin V/PI double staining flow cytometry", "format": "cell-based, human"}}, "data": [{"smiles": "CN(C)CC[C@H](CSc1ccccc1)Nc1ccc(S(=O)(=O)NC(=O)c2ccc(N3CCN(Cc4ccccc4-c4ccc(Cl)cc4)CC3)cc2)cc1[N+](=O)[O-]", "note": "[ABT-737]", "values": [{"measurement": "Binding to Mcl-1", "setting": "Mcl-1 [1]", "value": "fails to bind"}]}, {"smiles": "O=C(O)CSc1cc(NS(=O)(=O)c2ccc(Br)cc2)c2ccccc2c1O", "note": "[UMI-77]", "values": [{"measurement": "Concentration from which BL-Noxa / cellular Mcl-1 interaction is blocked", "setting": "cellular Mcl-1", "value": "≥ 10", "unit": "µM"}, {"measurement": "Disruption of BL-Noxa / cellular Mcl-1 interaction", "setting": "cellular Mcl-1", "value": "effectively disrupt the interactions between BL-Noxa and cellular Mcl-1 in a dose dependent manner"}, {"measurement": "IC50", "setting": "AsPC-1", "value": 16.1, "unit": "µM"}, {"measurement": "IC50", "setting": "BxPC-3", "value": 3.4, "unit": "µM"}, {"measurement": "IC50", "setting": "Panc-1", "value": 4.4, "unit": "µM"}, {"measurement": "Induction of apoptosis", "setting": "BxPC-3 cells [2]", "value": 7, "unit": "fold"}, {"measurement": "IC50", "setting": "MiaPaCa-2", "value": 12.5, "unit": "µM"}, {"measurement": "Fold lower affinity to A1/Bfl-1 than to Mcl-1", "setting": "A1/Bfl-1; FP Ki ratio", "value": 11, "unit": "fold"}, {"measurement": "Ki", "setting": "A1/Bfl-1", "value": "5.33 ± 1", "unit": "µM"}, {"measurement": "Fold decreased binding to Bcl-xL vs Mcl-1 (SPR)", "setting": "Bcl-xL [3]", "value": "more than 30 fold"}, {"measurement": "Concentration from which cytochrome c and Smac are released from mitochondria", "setting": "Panc-1 cells [4]", "value": "≥ 10", "unit": "µM"}, {"measurement": "Fold decreased binding to Bcl-w vs Mcl-1", "setting": "Bcl-w; FP Ki ratio", "value": 17, "unit": "fold"}, {"measurement": "Ki", "setting": "Bcl-w", "value": "8.19 ± 1.91", "unit": "µM"}, {"measurement": "Apoptosis in MEF WT cells", "setting": "[5]", "value": "more than 60%"}, {"measurement": "Fold decreased binding to Bcl-2 vs Mcl-1 (SPR)", "setting": "Bcl-2 [6]", "value": "more than 30 fold"}, {"measurement": "Endogenous protein-protein interactions of Bax and Bak with Mcl-1", "setting": "[7]", "value": "inhibition of the endogenous protein-protein interactions of Bax and Bak with Mcl-1"}, {"measurement": "Fold reduced binding to Bcl-xL vs Mcl-1", "setting": "Bcl-xL [8]; FP Ki ratio", "value": "more than 50 fold"}, {"measurement": "Ki", "setting": "Bcl-xL [8]; read-out: Ki ± SD, Bcl-xL, competitive FP assay, Bid BH3 peptide", "value": "33 ± 4.33", "unit": "µM"}, {"measurement": "Microsomal half-life (T1/2)", "setting": "[9]", "value": 45, "unit": "min"}, {"measurement": "Cell growth inhibition", "setting": "BxPC-3 cells [10]", "value": 50, "unit": "%"}, {"measurement": "Positive apoptotic cells of tumor sections (TUNEL) vs control group", "setting": "BxPC-3 xenograft", "value": "significantly increased"}, {"measurement": "Survivin in tumor tissue lysates (western blot)", "setting": "BxPC-3 xenograft", "value": "significant decrease of survivin"}, {"measurement": "Tumor growth inhibition in comparison with controls", "setting": "BxPC-3 xenograft; day 19 (p < 0.0001)", "value": 65, "unit": "%"}, {"measurement": "Tumor growth inhibition in comparison with controls", "setting": "BxPC-3 xenograft; day 22 (p < 0.003)", "value": 56, "unit": "%"}, {"measurement": "Histopathology (H&E) of kidney, liver and pancreas", "setting": "SCID mice", "value": "did not cause damage"}, {"measurement": "Cleaved caspase-3 versus DMSO control", "setting": "BxPC-3 cells [11]", "value": "statistically significant cleaved caspase-3 versus DMSO control"}, {"measurement": "Fold improved binding affinity to Mcl-1 in comparison with UMI-59 (SPR)", "setting": "Mcl-1 [12]; SPR IC50 ratio", "value": 4, "unit": "fold"}, {"measurement": "IC50", "setting": "Mcl-1 [12]; read-out: IC50, Mcl-1 (SPR), solution competitive SPR, immobilized Bid peptide", "value": 0.31, "unit": "µM"}, {"measurement": "Concentration from which activated Bax is substantially increased", "setting": "BxPC-3 cells [13]", "value": "≥ 5", "unit": "µM"}, {"measurement": "Induction of early apoptosis", "setting": "AsPC-1 cells", "value": 8, "unit": "%"}, {"measurement": "Potency for binding to Mcl-1 relative to 1 (UMI-59)", "setting": "Mcl-1 [14]; FP Ki ratio", "value": "three times higher potency"}, {"measurement": "Ki", "setting": "Mcl-1 [14]; read-out: Ki ± SD, Mcl-1, competitive FP assay, Bid BH3 peptide", "value": "0.49 ± 0.06", "unit": "µM"}, {"measurement": "Fold reduced binding to Bcl-2 vs Mcl-1", "setting": "Bcl-2 [15]; FP Ki ratio", "value": "more than 50 fold"}, {"measurement": "Ki", "setting": "Bcl-2 [15]; read-out: Ki ± SD, Bcl-2, competitive FP assay, Bid BH3 peptide", "value": "23.8 ± 1.81", "unit": "µM"}, {"measurement": "Concentration from which activated Bax is substantially increased", "setting": "Panc-1 cells [16]", "value": "≥ 5", "unit": "µM"}, {"measurement": "Apoptotic cells in MEF DKO cells", "setting": "[17]", "value": 16, "unit": "%"}, {"measurement": "IC50", "setting": "Capan-2", "value": 5.5, "unit": "µM"}, {"measurement": "Early apoptotic cells", "setting": "Panc-1 cells [18]; Panc-1, 5 μM, 24 hours", "value": 15, "unit": "%"}, {"measurement": "Early apoptotic cells", "setting": "Panc-1 cells [18]; Panc-1, 5 μM, 48 hours", "value": 21, "unit": "%"}, {"measurement": "Early apoptotic cells", "setting": "Panc-1 cells [18]; Panc-1, 10 μM, 24 hours", "value": 21, "unit": "%"}, {"measurement": "Early apoptotic cells", "setting": "Panc-1 cells [18]; Panc-1, 10 μM, 48 hours", "value": 49, "unit": "%"}]}, {"smiles": "O=C(O)CSc1cc(NS(=O)(=O)c2cccs2)c2ccccc2c1O", "note": "[UMI-59]", "values": [{"measurement": "Disruption of BL-Noxa / cellular Mcl-1 interaction", "setting": "cellular Mcl-1", "value": "effectively disrupt the interactions between BL-Noxa and cellular Mcl-1 in a dose dependent manner"}, {"measurement": "Ki", "setting": "A1/Bfl-1", "value": "6.14 ± 1", "unit": "µM"}, {"measurement": "Ki", "setting": "Bcl-w", "value": "37.5 ± 7.96", "unit": "µM"}]}]}
